In patent US9415031B2, “D-serine transporter inhibitors as pharmaceutical compositions for the treatment of visual system disorders” (Allergan, Inc., priority 2011, dated 2016):
“Also recorded” adds a separate entry of the source.

Assays:
ONC rat = assay: fixed-frequency VEP in optic nerve crush (ONC) rats; assay type: in vivo; conditions: 30 mg/kg, spatial frequency fixed at 0.2 cpd, vs saline
Description: (§1) The recording electrodes were permanently implanted into the right visual cortex of Long Evans rats at lambda and 4.5 mm lateral to the midline, to a depth of 800 microns (layer III/iV). A reference electrode was placed epidurally on the midline 1.2 mm anterior to bregma. All recordings were conducted in awake rats starting at least two weeks after recovery from surgery. During recording the rats were alert and restrained in a home-made restrainer. They were habituated 2-3 times pre-surgery and at least three more times during seven days post-surgery. PowerDiva software from Anthony Norcia (Smith Kettlewell Institute of Visual Sciences) was used for data acquisition and analysis. Similar recording was performed in rabbits (FIG. 11) except the screw electrodes were place on top of the skull.
(§2) Stimuli were presented on a CRT computer monitor and consist of full-field sine-wave gratings at 80% contrast, reversing at 6.25 Hz. VEPs were elicited by horizontally oriented gratings. The display was positioned 24 cm in front of the rat and centered at the vertical meridian. Mean luminance was held constant at 20 cd. For sVEP in normal rats (slides 76-79), one stimulus presentation (one trial) consists of a spatial frequency sweep decreasing from 1.6 to 0.03 cycles/degree in 15 linear steps. A total of 20 trials were collected. […] A total of 5 trials were collected and the signal powers were calculated.

normal rats = assay: sweep VEP visual acuity in normal rats; assay type: in vivo, rat; conditions: 0.03-1.6 cpd, vs saline
Description: Sweep visually evoked potential (sweep VEP, sVEP), which was first introduced by Regan in 1973, has become an important technique to measure visual function. It is an objective method that can be used to assess visual acuity (VA) and contrast sensitivity (CS) in infants, young children and people with special needs. It was adapted to measure VA and CS in animals.
as §1
Stimuli were presented on a CRT computer monitor and consist of full-field sine-wave gratings at 80% contrast, reversing at 6.25 Hz. VEPs were elicited by horizontally oriented gratings. The display was positioned 24 cm in front of the rat and centered at the vertical meridian. Mean luminance was held constant at 20 cd. For sVEP in normal rats (slides 76-79), one stimulus presentation (one trial) consists of a spatial frequency sweep decreasing from 1.6 to 0.03 cycles/degree in 15 linear steps. A total of 20 trials were collected. Visual acuity (VA) thresholds were estimated using PowerDiva software. For fixed frequency stimulus in optic nerve crushed (ONC) rats (slides 80-83), the spatial frequency was fixed at 0.2 or 0.5 cycles/degree. Each trial lasts for 15 s. A total of 5 trials were collected and the signal powers were calculated.

[1] = system: long-term potentiation (LTP) in the primary visual cortex; assay: long-term potentiation (LTP) in primary visual cortex slices; assay type: cell-based; conditions: rat visual cortex slice
Description: Long Term Potentiation (LTP) in primary visual cortex has been used as a cellular model for visual cortex plasticity and has functional consequences on visual evoked responses. NMDA receptors play a critical role in visual cortex LTP induction.
Following decapitation of the rat, the brain was rapidly removed and immersed in ice-cold artificial cerebrospinal fluid (ACSF) containing 124 mM NaCl, 3 mM KCl, 1.25 mM KH2PO4, 3.4 mM CaCl2, 2.5 mM MgSO4, 26 mM NaHCO3, and 10 mM D-glucose. A block of visual cortex was created by removing the frontal ⅔ portion of the brain and the cerebellum. Coronal visual cortex slices of 375 μm were prepared from adult Sprague Dawley (SD) rats using a vibratome (VT 1000 S; Leica). The slices were maintained in an interface recording chamber perfused with preheated ACSF. Slices were continuously perfused with this solution at a rate of 1.00-1.50 ml/min while the surface of the slices was exposed to warm, humidified 95% O2/5% CO2 and maintained at 31±1° C. Visual cortex slices were allowed to recover for 1 hr before recording began. […] This was repeated 2 additional times with a 1 minute intertrain interval, and the level of LTP was recorded for at least 30 min. Changes in amplitude of the synaptic response were used to measure the extent of LTP because it was determined to be the more consistent parameter than the slope of the response. […]

[2] = system: NMDA receptor-mediated excitatory postsynaptic currents (EPSCNMDA); assay: electrophysiological recording of NMDA receptor-mediated EPSCs from rat hippocampal slices; assay type: cell-based
Description: […] thick hippocampal slices were prepared from […] rats using Leica VT1000S-microtome. Slices were perfused with ACSF containing: 121 mM NaCl, 2.5 mM KCl, 2.0 mM Mg2SO4, 2.0 CaCl2, 1 mM NaH2PO4, 26.2 NaHCO3, and 11 mM glucose, which was equilibrated with 5% CO2/95% O2. Experiments were performed in a recording chamber on the stage of an Olympus BX-61wi microscope with infrared DIC optics for visualizing whole-cell patch-clamp recordings. EPSPs were recorded from CA1 pyramidal neurons by stimulating the Schaffer collateral-commissural pathway using a bipolar tungsten electrode. The recording pipettes were filled with regular ICM containing: 120 mM Cs-gluconate, 5 mM NaCl, 10 mM KCl, 0.1 mM CaCl2, 1 mM EGTA, 2 mM MgCl2, 10 mM HEPES, 2 mM Na-ATP, 2 mM Na2-phosphocreatine, and 0.25 mM Na-GTP, pH 7.3 (290 mOsm).
To measure NMDA-mediated EPSCs, extracellular Mg2SO4 was lowered to 0.2 mM and 2 μM NBQX and 100 μM picrotoxin were added in the ACSF. 1 μM 7-CKY (7-chlorokynurenic acid) was added to improve the sensitivity of […] to D-serine.

normal rabbits = assay: sweep VEP in normal rabbits; assay type: in vivo, rabbit; conditions: 30 mg/kg, 0.03-1.6 cpd, vs saline
Description: as §1, §2

[3] = system: rats after blue-light treatment; assay: contrast sensitivity (sweep VEP) in blue-light treated rats; assay type: in vivo, rat
Description: as §1
One stimulus presentation (one trial) consists of a contrast sweep increasing from 2.5 to 70% in 15 log steps. A total of 20 to 30 trials were collected. Contrast thresholds (CT) were estimated using PowerDiva software. Contrast sensitivity (CS) is calculated as 1/CT.
Blue-light treatment damages photoreceptors in the retina, and has been proposed as a model of age related macular degeneration (ARMD; Wielgus et al., 2010).

[4] = system: rat hippocampal astrocytes; assay: [3H]D-serine transport into primary cultures of rat hippocampal astrocytes; assay type: cell-based; conditions: two-component inhibition curves, FIG. 4
Description: (§3) Cell-based assays: the transport of [^3H]L- or D-serine was measured in primary cultures of rat hippocampal astrocytes or in human embryonic kidney (HEK) cells expressing ASCT transporter sub-types. For the astrocyte assays, cells were plated on either 24- or 96-well plates at a density of 50,000 cells per well. For the HEK assays, cells were plated on coated 96-well plates at a density of 80,000 cells/well. Assays were conducted in duplicate at room temperature in assay buffer consisting of: NaCl: 150 mM, KCl: 2 mM; MgCl2: 1 mM; CaCl2: 1 mM; HEPES: Tris buffer: 10 mM, pH7.4. To assess the sodium-dependence of transport, NaCl was replaced in the assay buffer by equimolar choline chloride. Following aspiration of growth medium and 2 washes with assay buffer, cells were incubated with [^3H]L- or D-serine at a final concentration of 1 μM for 5 min (astrocytes) or 1 min (HEK cells), after which the incubation medium was aspirated and the cells washed twice with ice-cold assay buffer. Cells containing radiolabel were solubilized in 100 μl of 1% Triton-X100 and an aliquot counted in a beta counter. IC50 values were determined over a range of at least 6 concentrations and derived from curve-fitting algorithms available in Graph Pad Prism 4.

ASCT1 [5] = target: T1, ASCT1 (Homo sapiens, UniProt P43007); assay: transport into HEK cells expressing ASCT1; assay type: cell-based; set-up: expressed in transfected cells; host or cells: HEK (human embryonic kidney) cells; conditions: inhibition of [3H]L-serine transport, HEK cells expressing ASCT1 vs ASCT2
T1 sequence (P43007 1-532): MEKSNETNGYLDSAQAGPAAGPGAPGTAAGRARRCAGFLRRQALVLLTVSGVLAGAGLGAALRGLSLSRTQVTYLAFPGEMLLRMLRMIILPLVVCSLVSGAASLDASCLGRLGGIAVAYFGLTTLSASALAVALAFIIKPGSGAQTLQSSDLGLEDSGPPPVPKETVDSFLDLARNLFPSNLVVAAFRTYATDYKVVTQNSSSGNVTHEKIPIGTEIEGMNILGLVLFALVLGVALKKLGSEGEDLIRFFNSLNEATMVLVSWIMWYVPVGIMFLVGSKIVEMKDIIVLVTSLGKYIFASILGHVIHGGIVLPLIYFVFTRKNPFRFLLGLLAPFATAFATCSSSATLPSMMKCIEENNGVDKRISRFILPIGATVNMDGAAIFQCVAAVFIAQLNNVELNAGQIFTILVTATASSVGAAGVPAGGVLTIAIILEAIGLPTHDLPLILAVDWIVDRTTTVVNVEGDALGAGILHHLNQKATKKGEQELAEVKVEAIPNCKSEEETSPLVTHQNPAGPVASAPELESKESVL
Description: as §3

ASCT1 [6] = target: T1, ASCT1; conditions: one literature report; cited from earlier work
ASCT2 = conditions: literature range; cited from earlier work
human ASCT2 = target: T2, human ASCT2 (Homo sapiens, UniProt Q15758); assay: transport into HEK cells expressing ASCT2; assay type: cell-based; conditions: inhibition of [3H]L-serine transport, HEK cells expressing ASCT1 vs ASCT2
T2 construct: expressed in transfected cells; host or cells: HEK (human embryonic kidney) cells
T2 sequence (Q15758 1-541): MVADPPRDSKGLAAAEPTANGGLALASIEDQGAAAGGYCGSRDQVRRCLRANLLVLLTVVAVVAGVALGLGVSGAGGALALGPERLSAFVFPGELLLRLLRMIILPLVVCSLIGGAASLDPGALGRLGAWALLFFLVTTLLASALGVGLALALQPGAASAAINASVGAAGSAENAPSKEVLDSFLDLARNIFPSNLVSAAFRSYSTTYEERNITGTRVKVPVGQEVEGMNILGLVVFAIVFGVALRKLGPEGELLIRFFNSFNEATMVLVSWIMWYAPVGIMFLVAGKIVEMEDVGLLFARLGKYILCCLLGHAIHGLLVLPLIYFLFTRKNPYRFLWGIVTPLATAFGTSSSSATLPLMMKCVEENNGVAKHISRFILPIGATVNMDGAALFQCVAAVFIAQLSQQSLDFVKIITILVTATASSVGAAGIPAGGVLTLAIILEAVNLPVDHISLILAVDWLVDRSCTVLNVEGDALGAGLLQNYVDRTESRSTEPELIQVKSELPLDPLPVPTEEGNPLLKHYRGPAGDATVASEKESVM
Description: as §3

## N[C@H](C(=O)O)c1ccc(O)cc1 [L-4OHPG, L-4-hydroxyphenylglycine]
ONC rat
  visually-evoked signals (power of signals) from the visual cortex: visual enhancement effect; also recorded: enhances visually-evoked signals
Normal rats; 30 mg/kg, 30 min after injection, 30 mg/kg
  visual function (visual acuity) assessed by sweep VEP: enhance visual function
[1]
  effect on LTP evoked by theta burst stimulation: dose-dependently facilitates; also recorded: enhanced LTP in a concentration-dependent manner
[1]; D-AAO
  effect on LTP with D-amino acid oxidase (D-AAO) in the perfusion medium: dependent on extracellular D-serine; also recorded: completely prevented
[2]; 1000 μM, in presence of 1 μM 7-CKY, representative experiment
  percentage increase in the amplitude of EPSCNMDA: 22%
[2]; 1000 μM, then control buffer
  duration of the potentiation effect on EPSCNMDA: lasted for one hour
[2]; CA1 region of the hippocampus
  effect on NMDA receptor-mediated EPSCs: dose-dependent effects; also recorded: potentiated
Normal rabbits
  visual function assessed by sweep VEP: enhances visual function; also recorded: enhanced sweep VEP
[3]; rats with damaged retinas following blue-light treatment, FIG. 12 as described in text
  contrast sensitivity: significant improvement in contrast sensitivity

## N[C@H](C(=O)O)c1ccc(F)cc1 [L-4FPG, L-4-fluorophenylglycine]
Normal rats; 10 mg/kg, 40 min after injection, 10 mg/kg
  visual function (visual acuity) assessed by sweep VEP: enhance visual function
Normal rats; 10 mg/kg, 40 min after injection, listed as L-FPG, 10 mg/kg
  visual function (visual acuity) assessed by sweep VEP: enhances visual function
[3]; rats fifty-three weeks after blue-light treatment, 10 mg/kg, 0.575 cpd, vs saline
  contrast sensitivity: improved the contrast sensitivity

## O=C(O)[C@@H]1C[C@@H](O)CN1 [L-t-4OHPro, L-trans-4-hydroxyproline]
[4]
  proportion of D-serine transport represented by the component for which the compound showed higher affinity: approximately 60%
ASCT1 [5]
  selectivity towards ASCT1: selectivity towards ASCT1
ASCT1 [5]; listed as L-trans-4OHPro
  selectivity towards ASCT1: selective for ASCT1
ASCT1 [6]
  reported affinity for ASCT1: high affinity

## NC(=O)CC[C@H](N)C(=O)O [L-glutamine]
ASCT2
  reported affinity for ASCT2: 23 to 70 µM
Human ASCT2
  selectivity towards ASCT2: selectivity towards ASCT2; also recorded: selective for ASCT2
[4]
  proportion of D-serine transport represented by the component for which the compound showed higher affinity: approximately 40%
